Results reported in patent publication US20080175794A1, “Substituted Pyridazinyl- and Pyrimidinyl-Quinolin-4-Ylamine Analogues” (NEUROGEN CORPORATION, priority 2005, published 2008).

target: T1, human capsaicin receptor (Homo sapiens, UniProt Q8NER1); assay: Calcium mobilization assay, determination of antagonist activity (Example 6); type: cell-based; conditions: Table III; assay provided in Example 6; cells expressing human capsaicin receptor, capsaicin at EC50
T1 construct: expressed in transfected cells
Method: A cDNA encoding full length human capsaicin receptor (SEQ ID NO:1, 2 or 3 of U.S. Pat. No. 6,482,611) is subcloned in the plasmid pBK-CMV (Stratagene, La Jolla, Calif.) for recombinant expression in mammalian cells.
Human embryonic kidney (HEK293) cells are transfected with the pBK-CMV expression construct encoding the full length human capsaicin receptor using standard methods. The transfected cells are selected over two weeks in media containing G418 (400 μg/ml) to obtain a pool of stably transfected cells. Independent clones are isolated from this pool by limiting dilution to obtain clonal stable cell lines for use in subsequent experiments.
Cells transfected with expression plasmids (as described in Example 4) and thereby expressing human capsaicin receptor are seeded and grown to 70-90% confluency in FALCON black-walled, clear-bottomed 96-well plates (#3904, BECTON-DICKINSON, Franklin Lakes, N.J.). The culture medium is emptied from the 96 well plates and FLUO-3 AM calcium sensitive dye (Molecular Probes, Eugene, Oreg.) is added to each well (dye solution: 1 mg FLUO-3 AM, 440 μL DMSO and 440 μl 20% pluronic acid in DMSO, diluted 1:250 in Krebs-Ringer HEPES (KRH) buffer (25 mM HEPES, […], 0.96 mM NaH2PO4, 1 mM MgSO4, 2 mM CaCl2, 5 mM glucose, 1 mM probenecid, pH 7.4), 50 μl diluted solution per well). Plates are covered with aluminum foil and incubated at 37° C. for 1-2 hours in an environment containing 5% CO2. After the incubation, the dye is emptied from the plates, and the cells are washed once with KRH buffer, and resuspended in KRH buffer.
To measure the ability of a test compound to agonize or antagonize a calcium mobilization response in cells expressing capsaicin receptors to capsaicin or other vanilloid agonist, the EC50 of the agonist capsaicin is first determined. An additional 20 μl of KRH buffer and 1 μl DMSO is added to each well of cells, prepared as described above. 100 μl capsaicin in KRH buffer is automatically transferred by the FLIPR instrument to each well. Capsaicin-induced calcium mobilization is monitored using either FLUOROSKAN ASCENT (Labsystems; Franklin, Mass.) or FLIPR (fluorometric imaging plate reader system; Molecular Devices, Sunnyvale, Calif.) instruments. Data obtained between 30 and 60 seconds after agonist application are used to generate an 8-point concentration response curve, with final capsaicin concentrations of 1 nM to 3 μM. KALEIDAGRAPH software (Synergy Software, Reading, Pa.) is used to fit the data to the equation: […]
Test compounds are dissolved in DMSO, diluted in 20 μl KRH buffer so that the final concentration of test compounds in the assay well is between […] and 5 μM, and added to cells prepared as described above. The 96 well plates containing prepared cells and test compounds are incubated in the dark at room temperature for 0.5 to 6 hours. It is important that the incubation not continue beyond 6 hours. Just prior to determining the fluorescence response, 100 μl capsaicin in KRH buffer at twice the EC50 concentration determined as described above is automatically added by the FLIPR instrument to each well of the 96 well plate for a final sample volume of 200 μl and a final capsaicin concentration equal to the EC50. The final concentration of test compounds in the assay wells is between 1 μM and 5 μM. […] The concentration of antagonist required to provide a 50% decrease, relative to the response observed in the presence of capsaicin and without antagonist, is the IC50 for the antagonist, and is preferably below 1 micromolar, 100 nanomolar, 10 nanomolar or 1 nanomolar.

T1 sequence (Q8NER1 whole entry): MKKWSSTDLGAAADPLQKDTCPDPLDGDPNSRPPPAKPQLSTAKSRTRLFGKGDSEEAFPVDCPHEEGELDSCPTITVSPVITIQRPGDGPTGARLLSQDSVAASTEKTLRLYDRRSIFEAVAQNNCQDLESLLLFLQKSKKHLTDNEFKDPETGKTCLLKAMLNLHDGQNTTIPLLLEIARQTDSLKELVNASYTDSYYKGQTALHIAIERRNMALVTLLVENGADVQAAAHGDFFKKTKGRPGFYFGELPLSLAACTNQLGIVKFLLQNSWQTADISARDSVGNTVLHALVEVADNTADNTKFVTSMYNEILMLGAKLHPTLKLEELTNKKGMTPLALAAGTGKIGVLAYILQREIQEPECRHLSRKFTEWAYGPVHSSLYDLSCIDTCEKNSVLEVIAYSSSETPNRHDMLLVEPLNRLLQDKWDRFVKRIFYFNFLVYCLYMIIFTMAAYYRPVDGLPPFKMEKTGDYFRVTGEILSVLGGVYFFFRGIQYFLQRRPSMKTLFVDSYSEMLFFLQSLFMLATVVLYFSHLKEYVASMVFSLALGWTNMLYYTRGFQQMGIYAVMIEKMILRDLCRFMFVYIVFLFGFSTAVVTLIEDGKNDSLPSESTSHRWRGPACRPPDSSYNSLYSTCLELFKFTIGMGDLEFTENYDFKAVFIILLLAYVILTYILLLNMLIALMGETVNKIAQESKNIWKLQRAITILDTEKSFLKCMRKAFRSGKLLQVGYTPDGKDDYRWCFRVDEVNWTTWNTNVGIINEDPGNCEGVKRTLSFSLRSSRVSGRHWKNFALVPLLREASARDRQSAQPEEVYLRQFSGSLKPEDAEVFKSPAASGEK

IC50, < 1000 nM:
CC(C)(CO)Nc1cc(C(F)(F)F)c(-c2cnc3c(Nc4ccc(C(F)(F)F)cn4)ccnc3n2)nn1 [Compound 171, 2-methyl-2-{[5-(trifluoromethyl)-6-(8-{[5-(trifluoromethyl)pyridin-2-yl]amino}pyrido[2,3-b]pyrazin-3-yl)pyridazin-3-yl]amino}propan-1-ol]
CCCCCNc1cc(C(F)(F)F)c(-c2cnc3c(Nc4ccc(C(F)(F)F)cn4)ccnc3n2)nn1 [Compound 153, 3-[6-(pentylamino)-4-(trifluoromethyl)pyridazin-3-yl]-N-[5-(trifluoromethyl)pyridin-2-yl]pyrido[2,3-b]pyrazin-8-amine]
CC(=O)c1cc(C(F)(F)F)c(-c2cnc3c(Nc4ccc(C(F)(F)F)cn4)ccnc3n2)nn1 [Compound 68, 1-[5-(trifluoromethyl)-6-(8-{[5-(trifluoromethyl)pyridin-2-yl]amino}pyrido[2,3-b]pyrazin-3-yl)pyridazin-3-yl]ethanone]
CC1CCCN1c1cc(C(F)(F)F)c(-c2cnc3c(Nc4ccc(C(F)(F)F)cn4)ccnc3n2)nn1 (stereo not shown) [Compound 129, 3-[6-(2-methylpyrrolidin-1-yl)-4-(trifluoromethyl)pyridazin-3-yl]-N-[5-(trifluoromethyl)pyridin-2-yl]pyrido[2,3-b]pyrazin-8-amine]
CCOc1nc(Nc2ccnc3nc(-c4nnccc4C(F)(F)F)cnc23)ccc1C(F)(F)F [Compound 44, N-[6-ethoxy-5-(trifluoromethyl)-2-pyridinyl]-3-[4-(trifluoromethyl)-3-pyridazinyl]pyrido[2,3-b]pyrazin-8-amine]
CCCOCCNc1cc(C(F)(F)F)c(-c2cnc3c(Nc4ccc(C(F)(F)F)cn4)ccnc3n2)nn1 [Compound 52, 3-[6-[(2-propoxyethyl)amino]-4-(trifluoromethyl)pyridazin-3-yl]-N-[5-(trifluoromethyl)pyridin-2-yl]pyrido[2,3-b]pyrazin-8-amine]
CC(C)Nc1cc(C(F)(F)F)c(-c2cnc3c(Nc4ccc(C(F)(F)F)cn4)ccnc3n2)nn1 [Compound 157, 3-[6-(isopropylamino)-4-(trifluoromethyl)pyridazin-3-yl]-N-[5-(trifluoromethyl)pyridin-2-yl]pyrido[2,3-b]pyrazin-8-amine]
OCCNc1cc(C(F)(F)F)c(-c2cnc3c(Nc4ccc(C(F)(F)F)cn4)ccnc3n2)nn1 [Compound 168, 2-{[5-(trifluoromethyl)-6-(8-{[5-(trifluoromethyl)pyridin-2-yl]amino}pyrido[2,3-b]pyrazin-3-yl)pyridazin-3-yl]amino}ethanol]
CN(C)C(=O)CNc1cc(C(F)(F)F)c(-c2cnc3c(Nc4ccc(C(F)(F)F)cn4)ccnc3n2)nn1 [Compound 167, N,N-dimethyl-N2-[5-(trifluoromethyl)-6-(8-{[5-(trifluoromethyl)pyridin-2-yl]amino}pyrido[2,3-b]pyrazin-3-yl)pyridazin-3-yl]glycinamide]
CC1(C)CCN1c1cc(C(F)(F)F)c(-c2cnc3c(Nc4ccc(C(F)(F)F)cn4)ccnc3n2)nn1 [Compound 131, 3-[6-(2,2-dimethylazetidin-1-yl)-4-(trifluoromethyl)pyridazin-3-yl]-N-[5-(trifluoromethyl)pyridin-2-yl]pyrido[2,3-b]pyrazin-8-amine]
FC(F)(F)c1ccc(Nc2ccnc3nc(-c4nnc(NCC5CCCO5)cc4C(F)(F)F)cnc23)nc1 (stereo not shown) [Compound 112, 3-{6-[(tetrahydrofuran-2-ylmethyl)amino]-4-(trifluoromethyl)pyridazin-3-yl}-N-[5-(trifluoromethyl)pyridin-2-yl]pyrido[2,3-b]pyrazin-8-amine]
CCN(CC)CCCNc1cc(C(F)(F)F)c(-c2cnc3c(Nc4ccc(C(F)(F)F)cn4)ccnc3n2)nn1 [Compound 73, N,N-diethyl-N′-[5-(trifluoromethyl)-6-(8-{[5-(trifluoromethyl)pyridin-2-yl]amino}pyrido[2,3-b]pyrazin-3-yl)pyridazin-3-yl]propane-1,3-diamine]
O[C@H]1CCN(c2cc(C(F)(F)F)c(-c3cnc4c(Nc5ccc(C(F)(F)F)cn5)ccnc4n3)nn2)C1 [Compound 193]
CN(CCO)c1cc(C(F)(F)F)c(-c2cnc3c(Nc4ccc(C(F)(F)F)cn4)ccnc3n2)nn1 [Compound 135, 2-{methyl[5-(trifluoromethyl)-6-(8-{[5-(trifluoromethyl)pyridin-2-yl]amino}pyrido[2,3-b]pyrazin-3-yl)pyridazin-3-yl]amino}ethanol]
NC(=O)CNc1cc(C(F)(F)F)c(-c2cnc3c(Nc4ccc(C(F)(F)F)cn4)ccnc3n2)nn1 [Compound 113, N2-[5-(trifluoromethyl)-6-(8-{[5-(trifluoromethyl)pyridin-2-yl]amino}pyrido[2,3-b]pyrazin-3-yl)pyridazin-3-yl]glycinamide]
CC(CO)Nc1cc(C(F)(F)F)c(-c2cnc3c(Nc4ccc(C(F)(F)F)cn4)ccnc3n2)nn1 (stereo not shown) [Compound 117, 2-{[5-(trifluoromethyl)-6-(8-{[5-(trifluoromethyl)pyridin-2-yl]amino}pyrido[2,3-b]pyrazin-3-yl)pyridazin-3-yl]amino}propan-1-ol]
COc1nc(Nc2ccnc3nc(-c4nnccc4C(F)(F)F)cnc23)ccc1C(F)(F)F [Compound 49, N-[6-methoxy-5-(trifluoromethyl)pyridin-2-yl]-3-[4-(trifluoromethyl)pyridazin-3-yl]pyrido[2,3-b]pyrazin-8-amine]
CN(C)CCCOc1cc(C(F)(F)F)c(-c2cnc3c(Nc4ccc(C(F)(F)F)cn4)ccnc3n2)nn1 [Compound 64, 3-{6-[3-(dimethylamino)propoxy]-4-(trifluoromethyl)pyridazin-3-yl}-N-[5-(trifluoromethyl)pyridin-2-yl]pyrido[2,3-b]pyrazin-8-amine]
CCN(C)c1cc(C(F)(F)F)c(-c2cnc3c(Nc4ccc(C(F)(F)F)cn4)ccnc3n2)nn1 [Compound 180, 3-{6-[ethyl(methyl)amino]-4-(trifluoromethyl)pyridazin-3-yl}-N-[5-(trifluoromethyl)pyridin-2-yl]pyrido[2,3-b]pyrazin-8-amine]
CN(C)CCN(C)c1cc(C(F)(F)F)c(-c2cnc3c(Nc4ccc(C(F)(F)F)cn4)ccnc3n2)nn1 [Compound 150, N,N,N′-trimethyl-N′-[5-(trifluoromethyl)-6-(8-{[5-(trifluoromethyl)pyridin-2-yl]amino}pyrido[2,3-b]pyrazin-3-yl)pyridazin-3-yl]ethane-1,2-diamine]
CN1CCN(c2cc(C(F)(F)F)c(-c3cnc4c(Nc5ccc(C(F)(F)F)cn5)ccnc4n3)nn2)CC1 [Compound 145, 3-[6-(4-methylpiperazin-1-yl)-4-(trifluoromethyl)pyridazin-3-yl]-N-[5-(trifluoromethyl)pyridin-2-yl]pyrido[2,3-b]pyrazin-8-amine]

same assay, conditions: assay provided in Example 6; cells expressing human capsaicin receptor, capsaicin at EC50

IC50, < 1000 nM:
FC(F)(F)c1ccc(Nc2ccnc3nc(-c4ncncc4C(F)(F)F)ccc23)nc1 [Compound 5, N-[5-(Trifluoromethyl)pyridin-2-yl]-7-[5-(trifluoromethyl)pyrimidin-4-yl]-1,8-naphthyridin-4-amine]
